These results are taken from US8791061B2, “Peptides for treating and preventing immune-related disorders, including treating and preventing infection by modulating innate immunity” (Soligenix, Inc., priority 2005, dated 2014).

Entries after “also recorded” stand apart in the source; their conditions may differ.

For assay [1], the target named is T1, DPPIV (Mus musculus, UniProt P28843).
T1 construct: The plasma was transferred to a 96-well assay plate for the DPPIV assay; from tissue; host or cells: pooled heparinized whole blood of ICR mice; plasma isolated after incubation
The assay can be described thus: Plasma DPPIV activity assay with mouse blood. In kind it is biochemical. As to conditions: peptide 0.82 mM in mouse blood, 2 h at 37° C.; relative to saline control set to 100%. The protocol: Mouse blood was obtained by cardiac puncture from ICR mice and collected in heparinized blood collection tubes. Blood from several mice was pooled and aliquoted into […]. The peptide was dissolved in acetate buffered saline, pH 5.5, to a concentration of 9 mM. Of this stock solution 30 μL were added to 300 μL of blood and mixed by resuspension (concentration in blood 0.82 mM). For the control, 30 μL of blank acetate buffered saline was added to 300 μL of blood. Each peptide group was prepared in triplicate, whereas the control was prepared in six replicates. The samples were incubated at 37° C. in closed microtubes for two hours. After incubation the plasma was isolated from the samples by centrifugation at 4000 rcf. The plasma was transferred to a 96-well assay plate for the DPPIV assay. The assay was started by adding 5 μL of the DPPIV substrate gly-pro-p-nitroanilide (16 mM in de-ionized water) to 95 μl of plasma (concentration in plasma 0.8 mM) and the increase in UV absorbance (405 nm) was monitored over a 20 min time period. The rate of the production of p-nitroaniline by enzymatic cleavage of gly-pro-p-nitroanilide was taken as the activity of DPPIV (Durinx C et al., (2001) “Reference values for plasma dipeptidyl-peptidase IV activity and their association with other laboratory parameters”. Clin Chem Lab Med. 39(2):155-9.)
The effect of the peptides on the activity of DPPIV was observed. Results are presented as normalized, averaged % activity relative to saline control (set to 100%). Anything less than 100% activity represents a reduction in DPPIV activity.
In one aspect of the invention, a reduction by of DPPIV activity by about, or in one embodiment, at least, 25% (i.e. to about 75%+/−5%) was deemed to be active. A person skilled in the art would appreciate that the desired level of activity may vary depending on the use of the peptides.

Assay [2] concerns S. aureus 25923. As to the kind of experiment: Non-antimicrobial activity, WST-1 colorimetric bacterial viability assay. The format is cell-based. As to conditions: peptide 200 μM, 2 hours growth, compared with erythromycin 120 μg/ml. The protocol:
Bacteria (S. aureus 25923) were seeded into wells containing peptide (200 μM), vehicle (Tris), or antibiotic (erythromycin; 120 μg/ml). The bacteria were allowed to grow for 2 hours. Thereafter, bacterial viability was determined utilizing a WST-1 colorimetric viability assay (catalogue number 1 644 807; Roche Diagnostics). DMEM and DMEM+WST-1 were included as background controls.
(In general: Tetrazolium dyes change colour on reduction, which living cells bring about.)

In assay [3] the test system is S. aureus 25923. The assay can be described thus: Prophylactic in vivo protection, peptide before IP S. aureus infection of mice. The following applies: for protection (residual bacterial counts CFU/ml in intraperitoneal lavage fluid): mice, peptide IP 24 hours prior to infection, 12 mg/kg (SEQ 1), 11.5 mg/kg (SEQ 5), 24 hours post-infection; for mouse dead (peptide treatment): prophylactic peptide IP, control 2 mice dead. On the procedure:
Twenty-four hours prior to infection, peptide was administered at 12 mg/kg (SEQ. ID. NO. 1, FIG. 3A) and 11.5 mg/kg (SEQ. ID. No. 5, FIG. 3B), via IP injection. Mice were then infected with S. aureus 25923 via IP injection. Twenty-four hours post-infection, surviving animals were sacrificed and intraperitoneal lavage fluid was plated to determine residual bacterial counts (# colony forming units per ml (CFU/ml)) in the presence and absence of peptide treatment.
Dead animals were assigned the highest bacterial count of any animal in the study. The peptides of SEQ. ID.

For assay [4], the system named is S. aureus 25923. The assay can be described thus: In vivo protection, mice infected IP with S. aureus, peptide after infection. The following applies: peptide IP 4 hours after infection, 9-24 mg/kg depending on peptide, 24 hours post-infection, vs control. On the procedure: Mice were infected with S. aureus 25923 via intraperitoneal (IP) injection. Four hours later, the peptide of SEQ ID NOs:1, 4, 5, 6, 45, and 47 were administered at 12 mg/kg and 24 mg/kg for SEQ. ID. NO. 1 (FIGS. 2A and 2B), 9.6 mg/kg for SEQ. ID. NO. 5 (FIG. 2C), 13 mg/kg for SEQ. ID. NO. 47 (FIG. 2D), 12 mg/kg for SEQ. ID. NO. 4 (FIG. 2E), 9 mg/kg for SEQ. ID. NO. 6 (FIG. 2F), and 13 mg/kg for SEQ. ID. NO. 45 (FIG. 2G), via IP injection. Twenty-four hours post-infection, surviving animals were sacrificed, and intraperitoneal lavage fluid was plated to determine residual bacterial counts (# colony forming units per ml (CFU/ml)) in the presence and absence of peptide treatment.
Dead animals were assigned the highest bacterial count of any animal in the study.

For assay [5], the system named is methicillin-resistant Staphlococcus aureus (MRSA strain ATCC 33591, UC6685). The assay can be described thus: Enhancing the efficacy of antibiotic treatment, MRSA infection of CD-1 mice. The format is in vivo. The following applies: peptide 60 mg/kg IP 24 hours prior to infection, in combination with vancomycin s.c. 1 and 5 hours post-infection; relative to vehicle or antibiotic alone; 5 or 8 days. On the procedure: Twenty-four hours prior to infection, peptide was administered at 60 mg/kg via IP injection to CD-1 mice (N=10 animals/group; FIG. 8A: male mice, FIG. 8B: female mice). Mice were then infected with methicillin-resistant Staphlococcus aureus (MRSA strain ATCC 33591 in FIG. 8A and UC6685 in FIG. 8B) via IP injection (1.5*10^7 in FIG. 8A and ˜4*10^5 in FIG. 8B). Vancomycin at the given dosage was administered twice subcutaneously 1 and 5 hours post-infection. Survival was monitored over 5 (FIG. 8A) or 8 (FIG. 8B) days.

The target in assay [6] is T1, DPPIV. The assay can be described thus: Comparative DPPIV dose response curves in whole ICR mouse blood. The format is biochemical. The following applies: 2 h at 37° C., different concentrations. The protocol:
Dose response of SEQ. ID. NO. 5 of the present invention and SEQ. ID NO. 7 in PCT/CA02/01830, filed Dec. 2, 2002 (KSRIVPAIPVSLL). Peptides were incubated at different concentrations with whole ICR mouse blood for 2 h at 37° C. Blood incubated with acetate buffered saline (20 mM) was used as a control. Following incubation, plasma was isolated by centrifugation for 10 minutes at 4000 rcf. The substrate Gly-Pro-p-nitroanilide (0.8 mM) was added to the plasma and the enzymatic rate of DPPIV was determined by monitoring the increase in UV absorbance of the product p-nitroaniline. […] ID. NO.

The target in assay [7] is T2, DPPIV (Homo sapiens, UniProt P27487).
T2 construct: from tissue; host or cells: heparinized whole blood of human volunteer donors; plasma isolated after incubation
As to the kind of experiment: Plasma DPPIV activity assay with human blood. As to conditions: 2 hours at 37° C., dose response. In kind it is biochemical. On the procedure:
Human blood was obtained by qualified medical personnel from volunteer donors and collected in heparinized blood collection tubes. Blood was aliquoted into 300 μL aliquots. The peptides were dissolved in acetate buffered saline, pH 5.5. 30 μL of various concentrations were added to 300 μL of blood and mixed by resuspension (final concentration in blood as indicated in FIG. 6). For the control, 30 μL of blank acetate buffered saline was added to 300 μL of blood. Each concentration was prepared in triplicate, whereas the control was prepared in six replicates. The samples were incubated at 37° C. in closed microtubes for two hours. After incubation the plasma was isolated from the samples by centrifugation at 4000 rcf. The plasma was transferred to a 96-well assay plate for the DPPIV assay. The assay was started by adding 5 μL of the DPPIV substrate gly-pro-p-nitroanilide (16 mM in de-ionized water) to 95 μL of plasma (concentration in plasma 0.8 mM) and the increase in UV absorbance (405 nm) was monitored over a 20 min time period. The rate of the production of p-nitroaniline by enzymatic cleavage of gly-pro-p-nitroanilide was taken as the activity of DPPIV (Durinx C et al., (2001) “Reference values for plasma dipeptidyl-peptidase IV activity and their association with other laboratory parameters”. Clin Chem Lab Med. 39(2):155-9.)

Assay [8] deals with LPS stimulated cytokine response. The assay can be described thus: Anti-inflammatory activity: ex vivo LPS stimulated cytokine response of PBMCs after in vivo peptide treatment. Also on record: species or system mouse. The following applies: 100 mg/kg intravenously, blood collected after 4 hours, PBMCs stimulated with LPS. On the procedure: The effect of peptide treatment on the ex vivo LPS stimulated cytokine response was measured. In these studies, SEQ ID NO 5 was administered intravenously at 100 mg/kg and after 4 hours, blood was collected from each mouse. PBMCs were isolated and stimulated with LPS and the resulting cytokine levels were determined.

T1 sequence (P28843 37-760 limits assumed): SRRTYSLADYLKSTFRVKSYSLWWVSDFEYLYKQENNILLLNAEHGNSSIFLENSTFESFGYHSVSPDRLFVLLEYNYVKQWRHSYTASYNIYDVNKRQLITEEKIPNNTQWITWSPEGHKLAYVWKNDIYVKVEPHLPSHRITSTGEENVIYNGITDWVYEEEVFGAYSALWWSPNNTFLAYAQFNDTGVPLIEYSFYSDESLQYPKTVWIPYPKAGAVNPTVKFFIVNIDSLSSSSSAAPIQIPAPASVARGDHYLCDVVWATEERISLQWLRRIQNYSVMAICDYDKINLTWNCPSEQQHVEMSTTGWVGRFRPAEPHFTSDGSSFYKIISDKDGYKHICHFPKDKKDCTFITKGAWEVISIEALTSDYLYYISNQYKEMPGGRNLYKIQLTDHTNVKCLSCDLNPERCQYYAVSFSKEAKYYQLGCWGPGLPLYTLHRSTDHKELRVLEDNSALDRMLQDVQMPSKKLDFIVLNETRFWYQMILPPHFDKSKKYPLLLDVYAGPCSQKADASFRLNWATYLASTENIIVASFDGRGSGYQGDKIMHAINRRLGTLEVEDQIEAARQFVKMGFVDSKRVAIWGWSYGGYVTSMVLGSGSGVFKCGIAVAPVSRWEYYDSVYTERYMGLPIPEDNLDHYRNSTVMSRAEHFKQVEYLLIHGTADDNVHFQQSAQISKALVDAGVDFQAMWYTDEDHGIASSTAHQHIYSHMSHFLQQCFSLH
T2 sequence (P27487 39-766 limits assumed): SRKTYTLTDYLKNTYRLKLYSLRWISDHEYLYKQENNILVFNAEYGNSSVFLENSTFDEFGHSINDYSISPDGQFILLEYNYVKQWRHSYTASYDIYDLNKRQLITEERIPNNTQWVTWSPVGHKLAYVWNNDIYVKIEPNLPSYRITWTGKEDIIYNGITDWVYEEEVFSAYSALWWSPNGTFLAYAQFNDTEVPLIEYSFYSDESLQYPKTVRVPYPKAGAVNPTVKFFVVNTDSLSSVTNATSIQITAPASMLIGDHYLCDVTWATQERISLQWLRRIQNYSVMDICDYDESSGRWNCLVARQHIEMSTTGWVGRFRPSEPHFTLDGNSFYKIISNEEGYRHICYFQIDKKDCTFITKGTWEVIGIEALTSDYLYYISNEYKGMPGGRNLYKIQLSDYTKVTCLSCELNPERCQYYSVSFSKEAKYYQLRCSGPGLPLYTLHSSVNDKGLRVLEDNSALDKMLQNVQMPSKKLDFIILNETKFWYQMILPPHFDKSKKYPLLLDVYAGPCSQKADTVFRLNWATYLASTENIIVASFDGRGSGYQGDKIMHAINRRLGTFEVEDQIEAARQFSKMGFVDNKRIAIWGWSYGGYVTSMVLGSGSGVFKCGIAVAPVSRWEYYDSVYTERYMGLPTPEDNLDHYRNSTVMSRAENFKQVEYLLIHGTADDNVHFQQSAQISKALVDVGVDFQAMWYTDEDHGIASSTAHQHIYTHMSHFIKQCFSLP

“1 (KSRIVP; IMMUNOLOGICAL PEPTIDE) [compound 1]”: the “% DPPIV Activity (Saline)” value with DPPIV [1] worked out at 76%. Besides, the “antimicrobial activity (bacterial viability)” value with S. aureus 25923 [2] is “lacked antimicrobial activity”. For the same substance, in the assay on S. aureus 25923 [3], the “protection (residual bacterial counts CFU/ml in intraperitoneal lavage fluid)” value is recorded as “clearly demonstrated protection” and the “mouse dead (peptide treatment)” value was 0. Besides, the “protection (residual bacterial counts CFU/ml in intraperitoneal lavage fluid)” value in the assay with S. aureus 25923 [4] is given as “clearly demonstrated protection”.
Regarding “5 (RIVPA; IMMUNOLOGICAL PEPTIDE) [compound 5]”, the “% DPPIV Activity (Saline)” value with DPPIV [1] amounted to 66%. Moreover, the “antimicrobial activity (bacterial viability)” value in the assay with S. aureus 25923 [2] is recorded as “lack of activity; also recorded: lacked antimicrobial activity”. The “protection (residual bacterial counts CFU/ml in intraperitoneal lavage fluid)” value with S. aureus 25923 [3] and with S. aureus 25923 [4] was “clearly demonstrated protection” throughout. The “mouse dead (peptide treatment)” value in the assay on S. aureus 25923 [3] was 0.
Turning to “KSRIVP (IMMUNOLOGICAL PEPTIDE) [SEQ ID NO 1]”, the survival result in assay [5] is listed as “enhanced survival”.
Regarding “KSRIVPAIPVSLL [ID NO; 7 in PCT/CA02/01830, filed Dec; 2, 2002, reference compound]”, the DPPIV dose response result with DPPIV [6] is “A similar dose response was absent”.
On to RIVPA [SEQ ID NO 5], for which the “plasma DPPIV activity in human blood” value on DPPIV [7] is recorded as “comparable to that determined in mouse blood”. Moreover, in assay [8], the “inflammatory response to LPS stimulation (cytokine levels)” value was “decreased inflammatory response to LPS stimulation”. In addition, on DPPIV [6], the DPPIV dose response result was “larger decrease in DPPIV activity with increasing peptide concentration”. The survival entry in assay [5] was “enhanced survival”.
